These results are taken from patent US11970497B2, “Tricyclic AKR1C3 dependent KARS inhibitors” (Novartis AG, priority 2019, dated 2024).

By AC50 is commonly meant the midpoint of the concentration-response curve, whichever way the signal moves.

Test [1] relates to H460 (NRF2 pathway mutant cell line with high AKR1C3 expression). The test can be described thus: In vitro cell proliferation assay (CellTiter-Glo), H460. In kind it is cell-based. Particulars: Homo sapiens, NCI-H460, 72 h; H460 cells, 3 days, CellTiter-Glo, top concentration 10 μM; read-out: H460 Qualified absolute AC50. In short, it runs like this:
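Cells seeded day 1 (H460 800/well, Hara 2000/well) in RPMI-1640 with 10% FBS; compounds added day 2 as 8-point 1:5 dilutions from 10 μM top. After 3 days at 37 °C, viability read by CellTiter-Glo luminescence, normalized to DMSO and MG132 (30 μM) controls to derive percentage activity and AC50.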

Test [2] deals with Hara (NRF2 pathway wild type cell line with low AKR1C3 expression). The test can be described thus: In vitro cell proliferation assay (CellTiter-Glo), Hara. To be noted: 72 h; Hara cells, 3 days, CellTiter-Glo, top concentration 10 μM; read-out: HARA Qualified absolute AC50. In kind it is cell-based. The text has this:
Cellular Proliferation Assay to Assess Compounds Activity in H460 (NRF2 Pathway Mutant Cell Line with High AKR1C3 Expression) and Hara (NRF2 Pathway Wild Type Cell Line with Low AKR1C3 Expression).
The cell lines A549 and H460 are NRF2 pathway mutant and specifically contain genetic alterations in KEAP1 (A549: G333C, H460: D236H) (Singh A. et al., 2006 PLoS Medicine 3(10) e420). In these cell lines the NRF2 pathway is constitutively active and these cells express high levels of NRF2 protein and NRF2 pathway target gene AKR1C3. […] They have low AKR1C3 expression.
In Vitro Cell Proliferation Assay
Day 1, for H460 800 cells/well or 40 μL of 2×10^4 cells/mL and for Hara 2000 cells/well or 40 μL of 5×10^4 cells/mL medium (RPMI-1640 supplemented with 10% fetal bovine serum and 1% penicillin/streptomycin) were seeded into 384-well tissue culture plates. Day 2, compounds were serially diluted 1:5 to generate 8 point dose response curves and added to cells for a final top concentration of 10 μM. DMSO (1%) control and MG132 (30 μM) controls are added in columns 23 and 24 respectively on each plate for positive and negative control. After incubation for 3 days at 37° C./5% CO2, 30 μl of CellTiter-Glo reagent (Promega) was added and the plates were incubated for 10 min on plate shaker. The amount of luminescence was determined using a Perkin Elmer Envision plate reader. CellTiter-Glo luminescence values of cells treated with DMSO and MG132 controls were used to normalize the data and calculate percentage activity and AC50s of compounds using the Helios Software suite.

In the case of `O=C1CC2(CCN(C(=O)NCc3cccc(CO)c3)CC2)Nc2c(F)cc(F)cc21` [Example 129, 6′,8′-difluoro-N-(3-(hydroxymethyl)benzyl)-4′-oxo-3′,4′-dihydro-1′H-spiro[piperidine-4,2′-quinoline]-1-carboxamide], the AC50 is 1520 nM in test [1] and more than 10000 nM in test [2].
With `CN1c2ccc(F)cc2C(=O)CC12CCN(C(=O)NCc1ccc(F)c(NCCO)c1F)CC2` [Example 91, N-(2,4-difluoro-3-((2-hydroxyethyl)amino)benzyl)-6′-fluoro-1′-methyl-4′-oxo-3′,4′-dihydro-1′H-spiro[piperidine-4,2′-quinoline]-1-carboxamide], the results for the AC50 in test [1] and in test [2] were 451 nM and more than 10000 nM, respectively.
For `O=C1CC2(CCN(C(=O)NCc3ccc(F)cc3C(F)(F)F)CC2)Nc2ccc(F)cc21` [Example 67, 6′-fluoro-N-(4-fluoro-2-(trifluoromethyl)benzyl)-4′-oxo-3′,4′-dihydro-1′H-spiro[piperidine-4,2′-quinoline]-1-carboxamide] the same measures were 225 nM and 2300 nM.
For `O=C1CC2(CCN(C(=O)NCc3ccc(F)c(-c4cnco4)c3)CC2)Nc2ccc(F)cc21` [Example 15, 6′-fluoro-N-(4-fluoro-3-(oxazol-5-yl)benzyl)-4′-oxo-3′,4′-dihydro-1′H-spiro[piperidine-4,2′-quinoline]-1-carboxamide] the same measures were 29 nM and 9440 nM.
For `COC(=O)c1cc(CNC(=O)N2CCC3(CC2)CC(=O)c2cc(F)ccc2N3)ccc1F` [Example 61, methyl 2-fluoro-5-((6′-fluoro-4′-oxo-3′,4′-dihydro-1′H-spiro[piperidine-4,2′-quinoline]-1-carboxamido)methyl)benzoate], the values for the AC50 in test [1] and in test [2] were 205 nM and 3040 nM, respectively.
Turning to `O=C1CC2(CCN(C(=O)NCc3ccc(O)cc3)CC2)Nc2c(F)cc(F)cc21` [Example 54, 6′,8′-difluoro-N-(4-hydroxybenzyl)-4′-oxo-3′,4′-dihydro-1′H-spiro[piperidine-4,2′-quinoline]-1-carboxamide], the AC50 came out at 3 nM in test [1] and 9850 nM in test [2].
`O=C1CC2(CCN(C(=O)NCc3cccc(-c4ncc[nH]4)c3)CC2)Nc2ccc(F)cc21` [Example 130, N-(3-(1H-imidazol-2-yl)benzyl)-6′-fluoro-4′-oxo-3′,4′-dihydro-1′H-spiro[piperidine-4,2′-quinoline]-1-carboxamide]: the figures for the AC50 in test [1] and in test [2] were 1530 nM and more than 10000 nM, respectively.
For `NS(=O)(=O)c1cc(CNC(=O)N2CCC3(CC2)CC(=O)c2cc(F)ccc2N3)ccc1F` [Example 30, 6′-fluoro-N-(4-fluoro-3-sulfamoylbenzyl)-4′-oxo-3′,4′-dihydro-1′H-spiro[piperidine-4,2′-quinoline]-1-carboxamide], the AC50 in test [1] is 61 nM; in test [2] it was more than 10000 nM.
For the compound `CN1c2ccc(F)cc2C(=O)CC12CCN(C(=O)NCc1ccc(F)c(NC[C@H](O)CO)c1)CC2` [Example 45, (S)—N-(3-((2,3-dihydroxypropyl)amino)-4-fluorobenzyl)-6′-fluoro-1′-methyl-4′-oxo-3′,4′-dihydro-1′H-spiro[piperidine-4,2′-quinoline]-1-carboxamide], the values for the AC50 in test [1] and in test [2] were 100 nM and more than 10000 nM, respectively.
For `NC(=O)c1coc(CNC(=O)N2CCC3(CC2)CC(=O)c2cc(F)cc(F)c2N3)c1` [Example 38, N-((4-carbamoylfuran-2-yl)methyl)-6′,8′-difluoro-4′-oxo-3′,4′-dihydro-1′H-spiro[piperidine-4,2′-quinoline]-1-carboxamide], the AC50 in test [1] was 82 nM; in test [2], more than 10000 nM.
For `O=C1CC2(CCN(C(=O)NCc3ccc(F)c(CO)c3)CC2)Nc2ccc(F)cc21` [Example 83, 6′-fluoro-N-(4-fluoro-3-(hydroxymethyl)benzyl)-4′-oxo-3′,4′-dihydro-1′H-spiro[piperidine-4,2′-quinoline]-1-carboxamide] the same measures were 361 nM and more than 10000 nM.
Take `NC(=O)c1cc(CNC(=O)N2CCC3(CC2)CC(=O)c2cc(F)cc(F)c2N3)ccc1F` [Example 11, N-(3-carbamoyl-4-fluorobenzyl)-6′,8′-difluoro-4′-oxo-3′,4′-dihydro-1′H-spiro[piperidine-4,2′-quinoline]-1-carboxamide]: the AC50 in test [1] was 23 nM; in test [2], more than 10000 nM.
In the case of `NC(=O)Cc1cc(CNC(=O)N2CCC3(CC2)CC(=O)c2cc(F)ccc2N3)ccc1F` [Example 103, N-(3-(2-amino-2-oxoethyl)-4-fluorobenzyl)-6′-fluoro-4′-oxo-3′,4′-dihydro-1′Hspiro[piperidine-4,2′-quinoline]-1-carboxamide], the AC50 in test [1] was 558 nM; in test [2], more than 10000 nM.
Regarding `CN1c2ccc(F)cc2C(=O)CC12CCN(C(=O)NCc1ccc(N)cc1)CC2` [Example 76, N-(4-aminobenzyl)-6′-fluoro-1′-methyl-4′-oxo-3′,4′-dihydro-1′H-spiro[piperidine-4,2′-quinoline]-1-carboxamide], the values for the AC50 in test [1] and in test [2] were 309 nM and more than 10000 nM, respectively.
As to `O=C(NCCO)c1cc(CNC(=O)N2CCC3(CC2)CC(=O)c2cc(F)ccc2N3)ccc1F` [Example 48, 6′-fluoro-N-(4-fluoro-3-((2-hydroxyethyl)carbamoyl)benzyl)-4′-oxo-3′,4′-dihydro-1′H-spiro[piperidine-4,2′-quinoline]-1-carboxamide], the AC50 in test [1] was 108 nM; in test [2], 7960 nM.
As to `O=C1CC2(CCN(C(=O)NCc3ccc(F)cc3F)CC2)Nc2ccc(F)cc21` [Example 16, N-(2,4-difluorobenzyl)-6′-fluoro-4′-oxo-3′,4′-dihydro-1′H-spiro[piperidine-4,2′-quinoline]-1-carboxamide], the AC50 in test [1] is 29 nM; in test [2] it was more than 10000 nM.
Take `Nc1cc(CNC(=O)N2CCC3(CC2)CC(=O)c2cc(F)ccc2N3)c(F)cc1F` [Example 126, N-(5-amino-2,4-difluorobenzyl)-6′-fluoro-4′-oxo-3′,4′-dihydro-1′H-spiro[piperidine-4,2′-quinoline]-1-carboxamide]: the AC50 in test [1] is 1290 nM; in test [2], more than 10000 nM.
`CCN1c2ccc(F)cc2C(=O)CC12CCN(C(=O)NCc1ccc(F)c(N)c1F)CC2` [Example 26, N-(3-amino-2,4-difluorobenzyl)-1′-ethyl-6′-fluoro-4′-oxo-3′,4′-dihydro-1′H-spiro[piperidine-4,2′-quinoline]-1-carboxamide]: the results for the AC50 in test [1] and in test [2] were 47 nM and more than 10000 nM, respectively.
For `Nc1ccc(CNC(=O)N2CCC3(CC2)CC(=O)c2cc(F)ccc2N3)cn1` [Example 136, N-((6-aminopyridin-3-yl)methyl)-6′-fluoro-4′-oxo-3′,4′-dihydro-1′H-spiro[piperidine-4,2′-quinoline]-1-carboxamide] the same measures were 1990 nM and more than 10000 nM.
With `CC(O)c1cc(CNC(=O)N2CCC3(CC2)CC(=O)c2cc(F)ccc2N3C)ccc1F` (stereo not shown) [Example 92, 6′-fluoro-N-(4-fluoro-3-(1-hydroxyethyl)benzyl)-1′-methyl-4′-oxo-3′,4′-dihydro-1′H-spiro[piperidine-4,2′-quinoline]-1-carboxamide], the values for the AC50 in test [1] and in test [2] were 467 nM and more than 10000 nM, respectively.
